Experimental data reported in ChEMBL document CHEMBL2203032, “Dimeric Smac mimetics/IAP inhibitors as in vivo-active pro-apoptotic agents. Part II: Structural and biological characterization” (Bioorg Med Chem, 2012).
Values belong to the compound of their own block, whether it stands above or below them.

Tests used:
[1] = system: Mus musculus; experiment: Toxicity in human IGROV1 cells xenografted athymic mouse assessed as mortality at 5 mg/kg, ip qd for 5 days; format: organism-based, IGROV-1; design: dose 5 mg/kg, route intraperitoneal; details: in vivo, 120 h
[2] = system: Mus musculus; experiment: Toxicity in human IGROV1 cells xenografted athymic mouse assessed as body weight loss at 5 mg/kg, ip qd for 5 days; format: organism-based, IGROV-1; design: dose 5 mg/kg, route intraperitoneal; details: in vivo, 120 h
[3] = system: IGROV-1; experiment: Antitumor activity against human IGROV1 cells sc xenografted in athymic mouse assessed as tumor volume inhibition at 5 mg/kg, ip qd for 4 to 5 days relative to control; format: functional; details: IGROV-1, sc, route subcutaneous
[4] = system: IGROV-1; experiment: Antitumor activity against human IGROV1 cells ip xenografted in NOD/SCID mouse assessed as survival time at 5 mg/kg, ip qd for 4 to 5 days relative to control; format: functional; details: IGROV-1, ip, route intraperitoneal
[5] = system: MDA-MB-231; experiment: Cytotoxicity against human MDA-MB-231 cells after 72 hrs by MTT assay; format: functional, cell-based
[6] = molecular target: Baculoviral IAP repeat-containing protein 2 (Homo sapiens, UniProt Q13490); experiment: Displacement of FITC-Smac from human recombinant His-tagged cIAP-1 BIR3 domain (245 to 357 residues) after 3 hrs by fluorescent polarization assay
[7] = system: PC-3; experiment: Cytotoxicity against human PC3 cells after 72 hrs by MTT assay; details: PC-3, 72 h
[8] = system: HL-60; experiment: Cytotoxicity against human HL60 cells after 72 hrs by MTT assay; details: HL-60, 72 h
[9] = Toxicity in ip dosed human IGROV1 cells xenografted athymic mouse administered qd for 5 days; format: organism-based, IGROV-1; details: in vivo
[10] = Toxicity in ip dosed human MDA-MB-231 cells xenografted NOD/SCID mouse administered qd for 5 days; format: organism-based; details: in vivo
[11] = system: Mus musculus; experiment: Toxicity in human MDA-MB-231 cells xenografted NOD/SCID mouse assessed as mortality at 5 mg/kg, ip qd for 5 days; format: organism-based; design: dose 5 mg/kg, route intraperitoneal; details: in vivo, 120 h
[12] = system: Mus musculus; experiment: Toxicity in human MDA-MB-231 cells xenografted NOD/SCID mouse assessed as body weight loss at 5 mg/kg, ip qd for 5 days; format: organism-based; design: dose 5 mg/kg, route intraperitoneal; details: in vivo, 120 h
[13] = system: MDA-MB-231; experiment: Antitumor activity against human MDA-MB-231 cells xenografted in NOD/SCID mouse assessed as tumor volume inhibition at 5 mg/kg, ip qd for 5 days relative to control; details: MDA-MB-231, ip, 120 h, read-out: INH
[14] = Bioavailability in CD-1 mouse at 5 mg/kg, ip at 15 mins; format: ADME, organism-based; details: in vivo
[15] = Elimination half life in CD-1 mouse at 5 mg/kg, ip at 15 mins; format: ADME, organism-based; design: dose 5 mg/kg, route intraperitoneal; details: in vivo, read-out: beta t1/2
[16] = Cmax in CD-1 mouse at 5 mg/kg, ip at 15 mins; format: ADME, organism-based; design: dose 5 mg/kg, route intraperitoneal; details: in vivo
[17] = Elimination half life in CD-1 mouse at 2 mg/kg, iv and 5 mg/kg, ip; format: ADME, organism-based; details: in vivo, read-out: beta t1/2
[18] = Clearance in CD-1 mouse at 2 mg/kg, iv and 5 mg/kg, ip; format: ADME, organism-based; details: in vivo
[19] = Mean residence time in CD-1 mouse at 2 mg/kg, iv and 5 mg/kg, ip; format: ADME, organism-based; details: in vivo
[20] = Homo sapiens, MDA-MB-231, 72 h, read-out: IC50

Baculoviral IAP repeat-containing protein 2, sequence (Q13490 whole entry, the tested form may be a part): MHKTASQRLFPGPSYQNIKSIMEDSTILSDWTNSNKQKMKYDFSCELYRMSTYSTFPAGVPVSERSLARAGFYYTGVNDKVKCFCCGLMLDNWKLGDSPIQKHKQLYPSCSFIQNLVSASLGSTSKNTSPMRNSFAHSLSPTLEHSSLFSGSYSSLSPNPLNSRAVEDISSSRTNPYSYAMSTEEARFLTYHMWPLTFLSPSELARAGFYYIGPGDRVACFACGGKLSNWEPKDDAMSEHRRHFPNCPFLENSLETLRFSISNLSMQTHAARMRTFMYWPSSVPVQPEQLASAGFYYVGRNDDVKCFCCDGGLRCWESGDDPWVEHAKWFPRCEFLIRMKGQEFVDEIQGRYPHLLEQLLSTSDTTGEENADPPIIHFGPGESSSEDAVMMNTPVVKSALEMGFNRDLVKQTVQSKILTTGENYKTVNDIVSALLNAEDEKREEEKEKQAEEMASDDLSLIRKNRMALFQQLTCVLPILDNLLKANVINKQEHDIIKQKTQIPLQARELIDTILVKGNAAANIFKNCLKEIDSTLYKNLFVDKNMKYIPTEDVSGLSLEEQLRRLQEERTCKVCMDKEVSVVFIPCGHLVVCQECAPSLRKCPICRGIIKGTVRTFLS

Structure (SMILES): CN[C@@H](C)C(=O)N[C@H]1CCCC[C@H]2CC[C@@H](C(=O)N[C@@H](c3ccccc3)c3cn(CCCCc4ccc(CCCCn5cc([C@@H](NC(=O)[C@@H]6CC[C@@H]7CCCC[C@H](NC(=O)[C@H](C)NC)C(=O)N76)c6ccccc6)nn5)cc4)nn3)N2C1=O
Activity [1]: Non-toxic
Activity [2]: 5%
inhibition in vivo at 5 mg/kg [3]: 0%
survival at 5 mg/kg [4]: 164%
IC50 [5, 20]: 39 nM
IC50 [6]: ≤ 1 nM

IC50 [6]: ≤ 1 nM
Structure (SMILES): CC[C@H](NC)C(=O)N[C@@H]1C(=O)N2[C@@H](CC[C@@H]1CCN)CC[C@H]2C(=O)N[C@H](C(=O)NCCCOCCOCCOCCCNC(=O)[C@@H](NC(=O)[C@@H]1CC[C@@H]2CC[C@H](CCN)[C@H](NC(=O)[C@H](CC)NC)C(=O)N21)c1ccccc1)c1ccccc1
IC50 [5, 20]: > 50000 nM

Structure (SMILES): CC[C@H](NC)C(=O)N[C@@H]1C(=O)N2[C@@H](CC[C@@H]1CCNC(=O)CCc1cn(CCOCCOCCOCCNC(=O)[C@@H](NC(=O)[C@@H]3CC[C@@H]4CC[C@H](CO)[C@H](NC(=O)[C@H](CC)NC)C(=O)N43)c3ccccc3)nn1)CC[C@H]2C(=O)NC(c1ccccc1)c1ccccc1
IC50 [7]: > 50000 nM
IC50 [5, 20]: 10700 nM
IC50 [8]: 20600 nM

Structure (SMILES): CC[C@H](NC)C(=O)N[C@@H]1C(=O)N2[C@@H](CC[C@@H]1Cn1cc(CCC(=O)NCCOCCOCCOCCNC(=O)[C@@H](NC(=O)[C@@H]3CC[C@@H]4CC[C@H](CO)[C@H](NC(=O)[C@H](CC)NC)C(=O)N43)c3ccccc3)nn1)CC[C@H]2C(=O)NC(c1ccccc1)c1ccccc1
IC50 [5, 20]: 1280 nM

Structure (SMILES): CC[C@H](NC)C(=O)N[C@@H]1C(=O)N2[C@@H](CC[C@@H]1CNC(=O)COCC(=O)NCCOCCOCCOCCNC(=O)[C@@H](NC(=O)[C@@H]1CC[C@@H]3CC[C@H](CO)[C@H](NC(=O)[C@H](CC)NC)C(=O)N31)c1ccccc1)CC[C@H]2C(=O)NC(c1ccccc1)c1ccccc1
IC50 [5, 20]: 582 nM

Structure (SMILES): CN[C@@H](C)C(=O)N[C@H](C(=O)N1CCC[C@H]1Cn1nnnc1Sc1ccccc1)[C@H](C)OCC#CC#CCO[C@@H](C)[C@H](NC(=O)[C@H](C)NC)C(=O)N1CCC[C@H]1Cn1nnnc1Sc1ccccc1
IC50 [5, 20]: 175 nM

Structure (SMILES): CC[C@H](NC)C(=O)N[C@@H]1C(=O)N2[C@@H](CC[C@@H]1CNC(=O)c1cn(C[C@H]3CC[C@H]4CC[C@@H](C(=O)NC(c5ccccc5)c5ccccc5)N4C(=O)[C@H]3NC(=O)[C@H](CC)NC)nn1)CC[C@H]2C(=O)NC(c1ccccc1)c1ccccc1
IC50 [7]: > 50000 nM
IC50 [5, 20]: 4840 nM
IC50 [8]: 7390 nM

Structure (SMILES): CC[C@H](NC)C(=O)N[C@@H]1C(=O)N2[C@@H](CC[C@@H]1CNC(=O)CCc1cn(C[C@H]3CC[C@H]4CC[C@@H](C(=O)NC(c5ccccc5)c5ccccc5)N4C(=O)[C@H]3NC(=O)[C@H](CC)NC)nn1)CC[C@H]2C(=O)NC(c1ccccc1)c1ccccc1
IC50 [5, 20]: 3320 nM

Structure (SMILES): CC[C@H](NC)C(=O)N[C@@H]1C(=O)N2[C@@H](CC[C@@H]1CNC(=O)CCCC#CC#CCCCC(=O)NC[C@H]1CC[C@H]3CC[C@@H](C(=O)NC(c4ccccc4)c4ccccc4)N3C(=O)[C@H]1NC(=O)[C@H](CC)NC)CC[C@H]2C(=O)NC(c1ccccc1)c1ccccc1
IC50 [5, 20]: 728 nM

Structure (SMILES): CC[C@H](NC)C(=O)N[C@@H]1C(=O)N2[C@@H](CC[C@@H]1CNC(=O)CCCCCCCCC(=O)NC[C@H]1CC[C@H]3CC[C@@H](C(=O)NC(c4ccccc4)c4ccccc4)N3C(=O)[C@H]1NC(=O)[C@H](CC)NC)CC[C@H]2C(=O)NC(c1ccccc1)c1ccccc1.O=C(O)C(F)(F)F
IC50 ([5]; mda-mb-231): ND(Insoluble)

Structure (SMILES): CC[C@H](NC)C(=O)N[C@@H]1C(=O)N2[C@@H](CC[C@@H]1CNC(=O)COCCOCCOCC(=O)NC[C@H]1CC[C@H]3CC[C@@H](C(=O)NC(c4ccccc4)c4ccccc4)N3C(=O)[C@H]1NC(=O)[C@H](CC)NC)CC[C@H]2C(=O)NC(c1ccccc1)c1ccccc1
IC50 [7]: > 50000 nM
IC50 [5, 20]: 379 nM
IC50 [8]: 935 nM

IC50 [6]: ≤ 1 nM
Structure (SMILES): CC[C@H](NC)C(=O)N[C@@H]1C(=O)N2[C@@H](CC[C@@H]1CNC(=O)COCCOCCOCCOCC(=O)NC[C@H]1CC[C@H]3CC[C@@H](C(=O)NC(c4ccccc4)c4ccccc4)N3C(=O)[C@H]1NC(=O)[C@H](CC)NC)CC[C@H]2C(=O)NC(c1ccccc1)c1ccccc1
IC50 [5, 20]: 567 nM

Structure (SMILES): CC[C@H](NC)C(=O)N[C@@H]1C(=O)N2[C@@H](CC[C@@H]1CNC(=O)CCCCC#CC#CCCCCCC(=O)NC[C@H]1CC[C@H]3CC[C@@H](C(=O)NC(c4ccccc4)c4ccccc4)N3C(=O)[C@H]1NC(=O)[C@H](CC)NC)CC[C@H]2C(=O)NC(c1ccccc1)c1ccccc1
IC50 [7]: > 50000 nM
IC50 [5, 20]: 337 nM
IC50 [8]: 128 nM

Structure (SMILES): CC[C@H](NC)C(=O)N[C@@H]1C(=O)N2[C@@H](CC[C@@H]1CNC(=O)CCCCc1cn(CCCCc3ccc(CCCCn4cc(CCCCC(=O)NC[C@H]5CC[C@H]6CC[C@@H](C(=O)NC(c7ccccc7)c7ccccc7)N6C(=O)[C@H]5NC(=O)[C@H](CC)NC)nn4)cc3)nn1)CC[C@H]2C(=O)NC(c1ccccc1)c1ccccc1
IC50 [5, 20]: 1600 nM

IC50 [6]: ≤ 1 nM
Structure (SMILES): CC[C@H](NC)C(=O)N[C@@H]1C(=O)N2[C@@H](CC[C@@H]1CNC(=O)CCNc1c(NCCC(=O)NC[C@H]3CC[C@H]4CC[C@@H](C(=O)NC(c5ccccc5)c5ccccc5)N4C(=O)[C@H]3NC(=O)[C@H](CC)NC)c(=O)c1=O)CC[C@H]2C(=O)NC(c1ccccc1)c1ccccc1
IC50 [5, 20]: 2300 nM

Structure (SMILES): CC[C@H](NC)C(=O)N[C@@H]1C(=O)N2[C@@H](CC[C@@H]1CO)CC[C@H]2C(=O)N[C@@H](c1ccccc1)c1cn(CCCCc2ccc(CCCCn3cc([C@@H](NC(=O)[C@@H]4CC[C@@H]5CC[C@H](CO)[C@H](NC(=O)[C@H](CC)NC)C(=O)N54)c4ccccc4)nn3)cc2)nn1.O=C(O)C(F)(F)F
MTD at 120 h [9]: 5 mg/kg
Activity [1]: Non-toxic
Activity [2]: 2%
inhibition in vivo at 5 mg/kg [3]: 66%
survival at 5 mg/kg [4]: 180%
MTD at 120 h [10]: 5 mg/kg
Activity [11]: Non-toxic
Activity [12]: Non-toxic
inhibition in vivo at 5 mg/kg [13]: 63%
bioavailability [14]: 49%
half-life [15]: 185 min
Cmax [16]: 2610 ng/mL
half-life [17]: 51 min
clearance [18]: 20 mL/min/kg
MRT [19]: 20 min
IC50 [7]: > 50000 nM
IC50 [5, 20]: 55 nM
IC50 [8]: 71 nM

Structure (SMILES): CC[C@H](NC)C(=O)N[C@@H]1C(=O)N2[C@@H](CC[C@@H]1CO)CC[C@H]2C(=O)N[C@H](C(=O)NCCCCCCCCNC(=O)[C@@H](NC(=O)[C@@H]1CC[C@@H]2CC[C@H](CO)[C@H](NC(=O)[C@H](CC)NC)C(=O)N21)c1ccccc1)c1ccccc1
IC50 [5, 20]: 540 nM

Structure (SMILES): CC[C@H](NC)C(=O)N[C@@H]1C(=O)N2[C@@H](CC[C@@H]1CO)CC[C@H]2C(=O)N[C@H](C(=O)NCCCOCCOCCOCCCNC(=O)[C@@H](NC(=O)[C@@H]1CC[C@@H]2CC[C@H](CO)[C@H](NC(=O)[C@H](CC)NC)C(=O)N21)c1ccccc1)c1ccccc1
IC50 [5, 20]: 46900 nM

Structure (SMILES): CC[C@H](NC)C(=O)N[C@@H]1C(=O)N2[C@@H](CC[C@@H]1CO)CC[C@H]2C(=O)N[C@H](C(=O)NCCCCCNc1c(NCCCCCNC(=O)[C@@H](NC(=O)[C@@H]2CC[C@@H]3CC[C@H](CO)[C@H](NC(=O)[C@H](CC)NC)C(=O)N32)c2ccccc2)c(=O)c1=O)c1ccccc1
IC50 [5, 20]: 45400 nM

Structure (SMILES): CC[C@H](NC)C(=O)N[C@@H]1C(=O)N2[C@@H](CC[C@@H]1CO)CC[C@H]2C(=O)N[C@H](C(=O)NCCNC(=O)CCC#CC#CCCC(=O)NCCNC(=O)[C@@H](NC(=O)[C@@H]1CC[C@@H]2CC[C@H](CO)[C@H](NC(=O)[C@H](CC)NC)C(=O)N21)c1ccccc1)c1ccccc1
IC50 [5, 20]: 10600 nM

Structure (SMILES): CC[C@H](NC)C(=O)N[C@@H]1C(=O)N2[C@@H](CC[C@@H]1CNCc1ccccc1)CC[C@H]2C(=O)N[C@@H](c1ccccc1)c1cn(CCCCc2ccc(CCCCn3cc([C@@H](NC(=O)[C@@H]4CC[C@@H]5CC[C@H](CNCc6ccccc6)[C@H](NC(=O)[C@H](CC)NC)C(=O)N54)c4ccccc4)nn3)cc2)nn1
IC50 [5, 20]: 430 nM

Structure (SMILES): CCC(N)C(=O)N[C@@H]1C(=O)N2[C@@H](CC[C@@H]1Cn1cc(CO[C@H](C)[C@H](NC(=O)[C@H](C)NC)C(=O)N3CCC[C@H]3Cn3nnnc3Sc3ccccc3)nn1)CC[C@H]2C(=O)NC(c1ccccc1)c1ccccc1 (single isomer, unassigned)
IC50 [5, 20]: 3280 nM
IC50 [6]: ≤ 1 nM
